Data as given in patent US20080255080A1, “Hydroquinone Ansamycin Formulations” (priority 2007, published 2008).

Assay: Solubility in aqueous solutions
Format: physicochemical
Description: The hydroquinones provided herein may be converted into salt form by reaction with an acid, or by reaction with an acid halide of an amino acid. In the examples, the C-17 alkyl amino group is protonated to generate a C-17 ammonium salt hydroquinone geldanamycin analog. In addition, the C-17 ammonium salt hydroquinones formed have the added benefit of being highly soluble in aqueous solutions (solubility >200 mg/mL), unlike 17-AAG (solubility <100 μg/mL).

In the case of `C=CCNC1=C2C[C@@H](C)C[C@H](OC)[C@H](O)[C@@H](C)/C=C(\C)[C@H](OC(N)=O)[C@@H](OC)/C=C\C=C(/C)C(=O)NC(=CC1=O)C2=O` [Compound 17-AAG], the solubility is reported as < 0.1 mg/mL.
